Assay results published in PubChem BioAssay (NCI).
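All cell lines were grown in 96-well plates and treated with compound for 48 hours. The concentration for 50% growth inhibition is given as GI50. TGI: total growth inhibition.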

Legend:
Assay in all cases: growth of human tumour cells (NCI), 48 h
[1] = test system: SK-MEL-2 melanoma
[2] = test system: SN12C renal
[3] = test system: SK-OV-3 ovarian
[4] = test system: KM12 colon
[5] = test system: NCI-H23 lung
[6] = test system: HCT-116 colon
[7] = test system: SF-295 CNS
[8] = test system: SNB-19 CNS
[9] = test system: 786-0 renal
[10] = test system: NCI-H522 lung

Structure (SMILES)	GI50 [1] [µM]	TGI [1] [µM]	GI50 [2] [µM]	TGI [2] [µM]	GI50 [3] [µM]	TGI [3] [µM]	GI50 [4] [µM]	TGI [4] [µM]	GI50 [5] [µM]	TGI [5] [µM]	GI50 [6] [µM]	TGI [6] [µM]	GI50 [7] [µM]	TGI [7] [µM]	GI50 [8] [µM]	TGI [8] [µM]	GI50 [9] [µM]	TGI [9] [µM]	GI50 [10] [µM]	TGI [10] [µM]
O=C(/C=C1\C(=O)N(Cc2ccccc2)c2ccccc21)c1ccc(OCCN2CCCCC2)cc1	11.7	24.3	1.9	4.03	15	28.2	5.9	20.8	3.47	14.5	1.3	2.67	12.7	25.9	2.26	5.99	1.58	3.06	1.71	3.21
COC1CCC(OC)C(C2(C3CC(OC)CCC3OC)OC(=O)c3ccccc32)C1 (stereo not given)	–	> 100	–	> 100	–	> 100	–	> 100	–	> 100	–	> 100	–	> 100	–	> 100	–	> 100	–	52.1
Cc1cccc(C)c1N1C(=O)C(=O)C(c2nc3ccccc3s2)/C(=N/NC(=O)c2ccccc2O)C1=O (stereo not given)	–	> 100	–	> 100	–	> 100	–	> 100	–	39.1	–	> 79.5	–	> 100	–	> 79.8	–	> 66	–	39.6
COC(=O)C(CC(=O)Nc1ccc(Cl)c(Cl)c1)C(=O)C(=O)Nc1ccc(Cl)c(Cl)c1 (stereo not given)	–	> 100	–	> 100	–	> 100	–	> 100	–	> 100	–	> 100	–	> 100	–	> 100	–	> 100	–	> 100
NC(=O)c1cccc(OCC(O)CO)c1 (stereo not given)	–	> 100	–	> 100	–	> 100	–	> 100	–	> 100	–	> 100	–	> 100	–	> 100	–	> 100	–	> 100
